Results taken from PMC5290327, “SC83288 is a clinical development candidate for the treatment of severe malaria” (Nature Communications, 2017).

Legend:
Assay in all cases: KINOMEscan
Type in all cases: binding
Conditions in all cases: read-out: Remaining enzyme activity
[1] = molecular target: T1, MLK3 (Homo sapiens, UniProt Q16584)
T1 construct: purchased Ambit (DiscoverX) KINOMEscan; Cerep
Outline: (§1)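 Measures displacement of tagged kinase from an immobilized active-site probe rather than enzymatic activity. SC81458 was added at 10 μM final from a 40x stock in 100% DMSO. Bound kinase was eluted and counted via qPCR.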

[2] = molecular target: T2, MKNK2 (Homo sapiens, UniProt Q9HBH9)
T2 construct: purchased Ambit (DiscoverX) KINOMEscan; Cerep
Outline: as §1

[3] = molecular target: T3, RPS6KA2(Kin.Dom.1-N-term) (Homo sapiens, UniProt Q15349)
T3 construct: RPS6KA2(Kin.Dom.1-N-term); purchased Ambit (DiscoverX) KINOMEscan; Cerep
Outline: as §1

[4] = molecular target: T4, ABL1(H396P) (Homo sapiens, UniProt P00519, H396P)
T4 construct: purchased Ambit (DiscoverX) KINOMEscan; Cerep
Outline: as §1

[5] = molecular target: T5, GRK1 (Homo sapiens, UniProt Q15835)
T5 construct: purchased Ambit (DiscoverX) KINOMEscan; Cerep
Outline: as §1

[6] = molecular target: T6, PRKD1 (Homo sapiens, UniProt Q15139)
T6 construct: purchased Ambit (DiscoverX) KINOMEscan; Cerep
Outline: as §1

[7] = molecular target: T7, ULK1 (Homo sapiens, UniProt O75385)
T7 construct: purchased Ambit (DiscoverX) KINOMEscan; Cerep
Outline: as §1

[8] = molecular target: T8, PRKD3 (Homo sapiens, UniProt O94806)
T8 construct: purchased Ambit (DiscoverX) KINOMEscan; Cerep
Outline: as §1

[9] = molecular target: T9, AMPK-alpha2 (Homo sapiens, UniProt P54646)
T9 construct: purchased Ambit (DiscoverX) KINOMEscan; Cerep
T9 sequence (P54646 whole entry): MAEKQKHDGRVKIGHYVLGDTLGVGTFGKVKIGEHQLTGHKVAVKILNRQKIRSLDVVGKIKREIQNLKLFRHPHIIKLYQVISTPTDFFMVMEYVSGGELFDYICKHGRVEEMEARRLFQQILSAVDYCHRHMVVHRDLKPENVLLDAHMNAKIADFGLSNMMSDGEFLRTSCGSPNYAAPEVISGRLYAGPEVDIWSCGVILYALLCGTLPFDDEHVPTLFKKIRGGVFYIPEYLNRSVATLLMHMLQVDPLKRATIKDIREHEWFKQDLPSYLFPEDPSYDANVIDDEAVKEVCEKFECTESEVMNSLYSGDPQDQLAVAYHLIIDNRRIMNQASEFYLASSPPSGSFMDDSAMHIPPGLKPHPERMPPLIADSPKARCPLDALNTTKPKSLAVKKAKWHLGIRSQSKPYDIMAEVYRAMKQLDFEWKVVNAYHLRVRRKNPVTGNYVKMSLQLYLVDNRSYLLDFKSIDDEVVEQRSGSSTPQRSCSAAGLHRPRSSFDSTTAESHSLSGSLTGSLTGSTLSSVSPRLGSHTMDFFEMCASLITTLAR
Outline: as §1

[10] = molecular target: T10, DAPK1 (Homo sapiens, UniProt P53355)
T10 construct: purchased Ambit (DiscoverX) KINOMEscan; Cerep
T10 sequence (P53355 whole entry): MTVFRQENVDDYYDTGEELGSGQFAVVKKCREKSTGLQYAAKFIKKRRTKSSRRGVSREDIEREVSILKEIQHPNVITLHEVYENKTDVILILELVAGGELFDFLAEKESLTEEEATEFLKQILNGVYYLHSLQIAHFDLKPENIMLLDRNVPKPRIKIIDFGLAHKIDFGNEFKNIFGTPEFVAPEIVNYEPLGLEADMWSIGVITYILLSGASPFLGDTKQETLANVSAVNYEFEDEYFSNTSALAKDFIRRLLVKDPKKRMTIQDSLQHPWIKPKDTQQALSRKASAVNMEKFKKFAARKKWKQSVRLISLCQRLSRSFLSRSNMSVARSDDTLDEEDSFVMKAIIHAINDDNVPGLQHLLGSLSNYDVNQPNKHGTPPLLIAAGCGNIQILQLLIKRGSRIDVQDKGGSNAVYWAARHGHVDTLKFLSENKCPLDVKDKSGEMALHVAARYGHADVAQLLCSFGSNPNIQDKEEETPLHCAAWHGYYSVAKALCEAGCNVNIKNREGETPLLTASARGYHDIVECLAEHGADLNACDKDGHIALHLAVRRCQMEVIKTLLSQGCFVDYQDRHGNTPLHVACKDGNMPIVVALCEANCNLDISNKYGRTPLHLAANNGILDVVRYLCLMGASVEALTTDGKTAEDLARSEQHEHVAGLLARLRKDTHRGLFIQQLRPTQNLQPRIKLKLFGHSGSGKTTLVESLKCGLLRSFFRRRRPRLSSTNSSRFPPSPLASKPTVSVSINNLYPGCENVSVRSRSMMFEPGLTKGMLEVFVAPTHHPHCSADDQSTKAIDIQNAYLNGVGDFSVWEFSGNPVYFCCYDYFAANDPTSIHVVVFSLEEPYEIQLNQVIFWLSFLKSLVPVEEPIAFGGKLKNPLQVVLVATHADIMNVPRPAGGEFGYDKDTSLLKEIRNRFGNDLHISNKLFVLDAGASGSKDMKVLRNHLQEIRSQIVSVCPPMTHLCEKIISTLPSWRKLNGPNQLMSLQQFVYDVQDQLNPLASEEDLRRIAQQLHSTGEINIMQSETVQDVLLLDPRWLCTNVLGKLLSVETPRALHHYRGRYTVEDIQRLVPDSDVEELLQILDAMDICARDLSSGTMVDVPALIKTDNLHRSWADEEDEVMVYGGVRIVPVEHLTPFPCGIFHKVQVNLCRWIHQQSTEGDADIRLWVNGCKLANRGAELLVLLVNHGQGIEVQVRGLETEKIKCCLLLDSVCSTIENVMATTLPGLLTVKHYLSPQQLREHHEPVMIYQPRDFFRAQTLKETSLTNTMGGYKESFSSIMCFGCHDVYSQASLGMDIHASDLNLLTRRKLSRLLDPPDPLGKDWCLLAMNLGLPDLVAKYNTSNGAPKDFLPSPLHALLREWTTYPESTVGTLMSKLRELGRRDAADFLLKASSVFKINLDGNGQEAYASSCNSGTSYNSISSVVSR
Outline: as §1

[11] = molecular target: T11, PRKR (Homo sapiens, UniProt P19525)
T11 construct: purchased Ambit (DiscoverX) KINOMEscan; Cerep
Outline: as §1

[12] = molecular target: T12, LYN (Homo sapiens, UniProt P07948)
T12 construct: purchased Ambit (DiscoverX) KINOMEscan; Cerep
Outline: as §1

[13] = molecular target: T13, CSNK1d (Homo sapiens, UniProt P48730)
T13 construct: purchased Ambit (DiscoverX) KINOMEscan; Cerep
Outline: as §1

[14] = molecular target: T14, MERTK (Homo sapiens, UniProt Q12866)
T14 construct: purchased Ambit (DiscoverX) KINOMEscan; Cerep
T14 sequence (Q12866 21-999): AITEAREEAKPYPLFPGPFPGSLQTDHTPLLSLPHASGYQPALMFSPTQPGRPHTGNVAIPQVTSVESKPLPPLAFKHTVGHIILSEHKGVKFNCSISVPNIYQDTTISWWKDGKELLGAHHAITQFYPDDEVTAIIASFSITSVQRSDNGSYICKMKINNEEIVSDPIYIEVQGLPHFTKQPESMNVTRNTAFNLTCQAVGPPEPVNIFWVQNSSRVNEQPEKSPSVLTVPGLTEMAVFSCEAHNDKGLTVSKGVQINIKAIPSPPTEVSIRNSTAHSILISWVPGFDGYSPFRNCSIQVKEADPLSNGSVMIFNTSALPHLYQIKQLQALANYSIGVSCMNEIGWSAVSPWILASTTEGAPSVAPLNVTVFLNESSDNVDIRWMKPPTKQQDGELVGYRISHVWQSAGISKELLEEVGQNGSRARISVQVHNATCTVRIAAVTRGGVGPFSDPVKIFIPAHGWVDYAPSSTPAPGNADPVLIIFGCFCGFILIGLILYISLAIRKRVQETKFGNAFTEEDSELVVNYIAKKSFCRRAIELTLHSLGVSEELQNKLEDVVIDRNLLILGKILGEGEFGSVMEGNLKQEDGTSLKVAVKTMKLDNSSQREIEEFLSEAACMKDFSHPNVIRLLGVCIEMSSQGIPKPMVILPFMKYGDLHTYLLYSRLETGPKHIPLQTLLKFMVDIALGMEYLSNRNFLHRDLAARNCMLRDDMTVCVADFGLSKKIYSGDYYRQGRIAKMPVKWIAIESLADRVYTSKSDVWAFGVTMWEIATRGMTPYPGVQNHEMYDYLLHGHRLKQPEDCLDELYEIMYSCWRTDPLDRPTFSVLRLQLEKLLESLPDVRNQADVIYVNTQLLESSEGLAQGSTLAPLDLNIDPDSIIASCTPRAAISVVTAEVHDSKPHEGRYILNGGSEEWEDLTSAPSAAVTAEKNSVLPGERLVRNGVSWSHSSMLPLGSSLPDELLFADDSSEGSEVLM
Outline: as §1

[15] = molecular target: T15, SgK085 (Homo sapiens, UniProt Q86YV6)
T15 construct: purchased Ambit (DiscoverX) KINOMEscan; Cerep
T15 sequence (Q86YV6 whole entry): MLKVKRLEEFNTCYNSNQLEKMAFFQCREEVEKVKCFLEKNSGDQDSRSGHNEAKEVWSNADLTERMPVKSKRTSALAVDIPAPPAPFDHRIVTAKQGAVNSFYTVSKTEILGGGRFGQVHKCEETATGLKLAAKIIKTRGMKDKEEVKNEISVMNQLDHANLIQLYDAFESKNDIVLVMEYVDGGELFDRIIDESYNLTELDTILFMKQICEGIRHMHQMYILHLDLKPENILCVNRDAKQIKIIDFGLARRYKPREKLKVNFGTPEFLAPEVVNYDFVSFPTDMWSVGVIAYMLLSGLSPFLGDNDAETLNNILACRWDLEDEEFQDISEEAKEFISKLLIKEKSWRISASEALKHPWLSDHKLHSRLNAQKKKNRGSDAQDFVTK
Outline: as §1

[16] = molecular target: T16, MYLK (Homo sapiens, UniProt Q15746)
T16 construct: purchased Ambit (DiscoverX) KINOMEscan; Cerep
Outline: as §1

[17] = molecular target: T17, NDR2 (Homo sapiens, UniProt Q9Y2H1)
T17 construct: purchased Ambit (DiscoverX) KINOMEscan; Cerep
Outline: as §1

[18] = molecular target: T18, EPHB2 (Homo sapiens, UniProt P29323)
T18 construct: purchased Ambit (DiscoverX) KINOMEscan; Cerep
Outline: as §1

[19] = molecular target: T19, FLT4 (Homo sapiens, UniProt P35916)
T19 construct: purchased Ambit (DiscoverX) KINOMEscan; Cerep
Outline: as §1

[20] = molecular target: T20, ABL1(E255K) (Homo sapiens, UniProt P00519, E255K)
T20 construct: purchased Ambit (DiscoverX) KINOMEscan; Cerep
Outline: as §1

[21] = molecular target: T21, PAK4 (Homo sapiens, UniProt O96013)
T21 construct: purchased Ambit (DiscoverX) KINOMEscan; Cerep
T21 sequence (O96013 whole entry): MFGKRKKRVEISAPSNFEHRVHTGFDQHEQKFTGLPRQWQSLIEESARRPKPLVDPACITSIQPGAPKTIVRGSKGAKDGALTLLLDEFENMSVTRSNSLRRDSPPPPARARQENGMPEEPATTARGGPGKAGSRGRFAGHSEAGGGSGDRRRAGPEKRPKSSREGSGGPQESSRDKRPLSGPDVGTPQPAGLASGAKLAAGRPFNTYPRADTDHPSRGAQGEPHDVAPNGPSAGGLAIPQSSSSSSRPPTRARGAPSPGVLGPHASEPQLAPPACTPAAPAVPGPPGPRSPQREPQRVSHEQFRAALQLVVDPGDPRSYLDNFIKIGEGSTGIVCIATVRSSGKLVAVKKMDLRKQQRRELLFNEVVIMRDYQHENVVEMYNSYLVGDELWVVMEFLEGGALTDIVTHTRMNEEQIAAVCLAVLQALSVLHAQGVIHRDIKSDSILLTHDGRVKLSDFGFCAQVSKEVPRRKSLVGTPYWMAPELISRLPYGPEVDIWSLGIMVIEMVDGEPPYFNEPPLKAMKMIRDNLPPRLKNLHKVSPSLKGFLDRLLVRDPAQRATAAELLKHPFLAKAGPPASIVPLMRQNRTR
Outline: as §1

[22] = molecular target: T22, BRSK1 (Homo sapiens, UniProt Q8TDC3)
T22 construct: purchased Ambit (DiscoverX) KINOMEscan; Cerep
Outline: as §1

[23] = molecular target: T23, ERK4 (Homo sapiens, UniProt P31152)
T23 construct: purchased Ambit (DiscoverX) KINOMEscan; Cerep
Outline: as §1

[24] = molecular target: T24, MAST1 (Homo sapiens, UniProt Q9Y2H9)
T24 construct: purchased Ambit (DiscoverX) KINOMEscan; Cerep
Outline: as §1

[25] = molecular target: T25, KIT (Homo sapiens, UniProt P10721)
T25 construct: purchased Ambit (DiscoverX) KINOMEscan; Cerep
Outline: as §1

[26] = molecular target: T26, PIK3CA(E545K) (Homo sapiens, UniProt P42336, E545K)
T26 construct: purchased Ambit (DiscoverX) KINOMEscan; Cerep
T26 sequence (P42336 whole entry E545K): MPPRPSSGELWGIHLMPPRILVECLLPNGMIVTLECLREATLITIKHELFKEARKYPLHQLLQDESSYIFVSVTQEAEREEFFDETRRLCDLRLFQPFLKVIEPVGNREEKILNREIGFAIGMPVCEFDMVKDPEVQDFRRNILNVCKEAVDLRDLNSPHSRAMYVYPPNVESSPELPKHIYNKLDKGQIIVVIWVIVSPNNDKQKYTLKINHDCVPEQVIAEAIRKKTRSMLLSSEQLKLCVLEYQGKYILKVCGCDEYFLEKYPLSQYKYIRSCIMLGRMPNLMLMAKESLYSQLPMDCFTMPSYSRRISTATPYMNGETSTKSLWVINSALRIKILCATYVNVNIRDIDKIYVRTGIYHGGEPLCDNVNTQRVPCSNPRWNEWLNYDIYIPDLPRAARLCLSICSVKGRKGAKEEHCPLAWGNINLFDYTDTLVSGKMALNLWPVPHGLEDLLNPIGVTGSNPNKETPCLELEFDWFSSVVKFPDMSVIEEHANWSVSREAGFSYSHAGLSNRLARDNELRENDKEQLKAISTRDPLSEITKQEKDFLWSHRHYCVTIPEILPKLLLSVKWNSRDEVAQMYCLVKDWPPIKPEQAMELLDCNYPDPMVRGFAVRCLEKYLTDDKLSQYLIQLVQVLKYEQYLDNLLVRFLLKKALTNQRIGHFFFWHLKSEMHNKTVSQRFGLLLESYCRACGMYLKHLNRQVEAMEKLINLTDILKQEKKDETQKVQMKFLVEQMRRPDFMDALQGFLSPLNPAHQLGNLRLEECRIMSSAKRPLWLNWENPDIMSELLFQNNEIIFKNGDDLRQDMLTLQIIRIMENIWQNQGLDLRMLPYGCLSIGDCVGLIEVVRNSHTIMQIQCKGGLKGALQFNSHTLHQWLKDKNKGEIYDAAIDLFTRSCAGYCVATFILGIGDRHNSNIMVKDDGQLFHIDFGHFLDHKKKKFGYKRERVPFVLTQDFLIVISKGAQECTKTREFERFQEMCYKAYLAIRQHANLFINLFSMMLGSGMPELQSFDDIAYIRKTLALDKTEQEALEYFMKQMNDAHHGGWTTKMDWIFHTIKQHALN
Outline: as §1

[27] = molecular target: T27, RIPK1 (Homo sapiens, UniProt Q13546)
T27 construct: purchased Ambit (DiscoverX) KINOMEscan; Cerep
Outline: as §1

[28] = molecular target: T28, HIPK4 (Homo sapiens, UniProt Q8NE63)
T28 construct: purchased Ambit (DiscoverX) KINOMEscan; Cerep
Outline: as §1

[29] = molecular target: T29, MAPKAPK5 (Homo sapiens, UniProt Q8IW41)
T29 construct: purchased Ambit (DiscoverX) KINOMEscan; Cerep
Outline: as §1

[30] = molecular target: T30, ICK (Homo sapiens, UniProt Q9UPZ9)
T30 construct: purchased Ambit (DiscoverX) KINOMEscan; Cerep
Outline: as §1

[31] = molecular target: T31, TNNI3K (Homo sapiens, UniProt Q59H18)
T31 construct: purchased Ambit (DiscoverX) KINOMEscan; Cerep
Outline: as §1

[32] = molecular target: T32, AXL (Homo sapiens, UniProt P30530)
T32 construct: purchased Ambit (DiscoverX) KINOMEscan; Cerep
Outline: as §1

[33] = molecular target: T33, EPHA6 (Homo sapiens, UniProt Q9UF33)
T33 construct: purchased Ambit (DiscoverX) KINOMEscan; Cerep
Outline: as §1

Work on `CCCCN1CCN(C(=N)c2cccc(NC(=O)Nc3ccc(S(=O)(=O)NCc4ccc(S(N)(=O)=O)cc4)cc3)c2)CC1` [SC81458, 4-(3-(3-((4-butylpiperazin-1-yl)(imino)methyl)phenyl)ureido)-N-(4-sulfamoylbenzyl) benzenesulfonamide] yielded a remaining binding at 10 µM [1] of 100%, a remaining binding at 10 µM [2] of 100% and a remaining binding at 10 µM [3] of 100%. The remaining binding at 10 µM [4] was 100%, the remaining binding at 10 µM [5] was 100% and the remaining binding at 10 µM [6] was 65%. For the same molecule, the remaining binding at 10 µM [7] was 100%, the remaining binding at 10 µM [8] was 100% and the remaining binding at 10 µM [9] was 96%. It also gave a remaining binding at 10 µM [10] of 100%, a remaining binding at 10 µM [11] of 91% and a remaining binding at 10 µM [12] of 97%. It also gave a remaining binding at 10 µM [13] of 100%, a remaining binding at 10 µM [14] of 100% and a remaining binding at 10 µM [15] of 100%. It also gave a remaining binding at 10 µM [16] of 95%, a remaining binding at 10 µM [17] of 100% and a remaining binding at 10 µM [18] of 100%. It also gave a remaining binding at 10 µM [19] of 100%, a remaining binding at 10 µM [20] of 100% and a remaining binding at 10 µM [21] of 100%. It also gave a remaining binding at 10 µM [22] of 69%, a remaining binding at 10 µM [23] of 100% and a remaining binding at 10 µM [24] of 46%. The remaining binding at 10 µM [25] was 60%, the remaining binding at 10 µM [26] was 100% and the remaining binding at 10 µM [27] was 100%. The remaining binding at 10 µM [28] was 100%, the remaining binding at 10 µM [29] was 91% and the remaining binding at 10 µM [30] was 73%. For the same molecule, the remaining binding at 10 µM [31] was 100%, the remaining binding at 10 µM [32] was 100% and the remaining binding at 10 µM [33] was 92%.
